# Laboratory results as given in patent publication US10072012B2, “Process for crystalline pemetrexed dipotassium salt” (SHILPA MEDICARE LIMITED, priority 2013, dated 2018).
# Assay: Handling and storage stability of crystalline Form-SP9
# Format: physicochemical
# Conditions: handling and storage for longer time; solid state
# Description: Crystalline Form-SP9 retains its stoichiometry even on exposure to uncontrolled environmental conditions. This stable form thus, offers various advantages in terms of storage, shelf life and favorable impurity profile.
compound,measurement,value
"Nc1nc2[nH]cc(CCc3ccc(C(=O)N[C@@H](CCC(=O)[O-])C(=O)[O-])cc3)c2c(=O)[nH]1.[K+].[K+] [Form-SP9, Pemetrexed dipotassium]",stability of the crystal form (morphology and physicochemical characteristics),very stable crystal lattice
